Measurements taken from the NIST ThermoML archive (doi:10.1021/je900550v).

Details: 101.33 kPa, Liquid; for speed of sound: Pulse-echo method; for mass density: Vibrating tube method

CCCCC(=O)[O-].C[NH2+]CCO [2-hydroxy-N-methylethanaminium pentanoate]
Details | mass density [kg/m3] | speed of sound [m/s] | viscosity [mPa·s]
308.15 K | 1009.51 | 1517.6 | 133.08
308.4 K | 1009.34 | 1516.8 | –
308.65 K | 1009.18 | 1516.1 | –
308.9 K | 1009.01 | 1515.3 | –
309.15 K | 1008.84 | 1514.5 | –
309.4 K | 1008.67 | 1513.8 | –
309.65 K | 1008.5 | 1513 | –
309.9 K | 1008.33 | 1512.2 | –
310.15 K | 1008.16 | 1511.4 | 117.28
310.4 K | 1007.99 | 1510.7 | –
310.65 K | 1007.82 | 1509.9 | –
310.91 K | 1007.65 | 1509.1 | –
311.16 K | 1007.48 | 1508.3 | –
311.4 K | 1007.31 | 1507.6 | –
311.65 K | 1007.14 | 1506.8 | –
311.91 K | 1006.97 | 1506 | –
312.16 K | 1006.8 | 1505.3 | –
312.41 K | 1006.63 | 1504.5 | –
312.66 K | 1006.46 | 1503.7 | –
312.91 K | 1006.29 | 1503 | –
313.15 K | – | – | 102.38
313.16 K | 1006.12 | 1502.2 | –
313.4 K | 1005.95 | 1501.4 | –
313.66 K | 1005.78 | 1500.7 | –
313.9 K | 1005.61 | 1499.9 | –
314.15 K | 1005.44 | 1499.1 | –
314.4 K | 1005.27 | 1498.3 | –
314.65 K | 1005.09 | 1497.6 | –
314.9 K | 1004.92 | 1496.8 | –
315.15 K | 1004.75 | 1496 | 91.92
315.41 K | 1004.58 | 1495.3 | –
315.65 K | 1004.4 | 1494.5 | –
315.91 K | 1004.24 | 1493.8 | –
316.16 K | 1004.07 | 1493 | –
316.41 K | 1003.89 | 1492.2 | –
316.66 K | 1003.72 | 1491.5 | –
316.91 K | 1003.55 | 1490.7 | –
317.16 K | 1003.38 | 1489.9 | –
317.4 K | 1003.21 | 1489.2 | –
317.66 K | 1003.04 | 1488.4 | –
317.91 K | 1002.86 | 1487.6 | –
318.15 K | – | – | 80.38
318.16 K | 1002.69 | 1486.9 | –
318.41 K | 1002.52 | 1486.1 | –
318.65 K | 1002.35 | 1485.3 | –
318.9 K | 1002.18 | 1484.6 | –
319.16 K | 1002 | 1483.8 | –
319.41 K | 1001.83 | 1483.1 | –
319.65 K | 1001.66 | 1482.3 | –
319.91 K | 1001.49 | 1481.5 | –
320.16 K | 1001.32 | 1480.8 | –
320.41 K | 1001.14 | 1480 | –
320.65 K | 1000.97 | 1479.2 | 70.74
320.91 K | 1000.8 | 1478.5 | –
321.15 K | 1000.62 | 1477.7 | –
321.41 K | 1000.45 | 1476.9 | –
321.66 K | 1000.28 | 1476.1 | –
321.9 K | 1000.1 | 1475.4 | –
322.15 K | 999.932 | 1474.6 | –
322.41 K | 999.756 | 1473.8 | –
322.65 K | 999.586 | 1473.1 | –
322.91 K | 999.412 | 1472.3 | –
323.15 K | – | – | 66.02
323.16 K | 999.237 | 1471.6 | –
323.41 K | 999.06 | 1470.8 | –
323.65 K | 998.891 | 1470 | –
323.91 K | 998.715 | 1469.2 | –
324.16 K | 998.543 | 1468.5 | –
324.41 K | 998.367 | 1467.7 | –
324.65 K | 998.196 | 1467 | –
324.9 K | 998.022 | 1466.2 | –
325.16 K | 997.846 | 1465.4 | –
325.4 K | 997.672 | 1464.7 | –
325.66 K | 997.495 | 1463.9 | –
325.9 K | 997.325 | 1463.1 | –
326.16 K | 997.148 | 1462.4 | –
326.41 K | 996.977 | 1461.6 | –
326.66 K | 996.8 | 1460.8 | –
326.9 K | 996.626 | 1460.1 | –
327.16 K | 996.452 | 1459.3 | –
327.4 K | 996.278 | 1458.5 | –
327.66 K | 996.103 | 1457.8 | –
327.9 K | 995.927 | 1457 | –
328.15 K | 995.753 | 1456.2 | –
328.41 K | 995.577 | 1455.5 | –
328.66 K | 995.401 | 1454.7 | –
328.9 K | 995.229 | 1453.9 | –
329.16 K | 995.05 | 1453.2 | –
329.4 K | 994.879 | 1452.4 | –
329.65 K | 994.701 | 1451.6 | –
329.9 K | 994.528 | 1450.8 | –
330.16 K | 994.354 | 1450.1 | –
330.41 K | 994.177 | 1449.3 | –
330.66 K | 993.999 | 1448.5 | –
330.91 K | 993.824 | 1447.8 | –
331.16 K | 993.649 | 1447 | –
331.41 K | 993.472 | 1446.2 | –
331.66 K | 993.296 | 1445.5 | –
331.91 K | 993.121 | 1444.7 | –
332.16 K | 992.945 | 1443.9 | –
332.41 K | 992.768 | 1443.2 | –
332.66 K | 992.592 | 1442.4 | –
332.91 K | 992.415 | 1441.6 | –
333.16 K | 992.239 | 1440.8 | –
333.41 K | 992.064 | 1440.1 | –
333.66 K | 991.886 | 1439.3 | –
333.91 K | 991.71 | 1438.5 | –
334.16 K | 991.536 | 1437.8 | –
334.41 K | 991.358 | 1437 | –
334.66 K | 991.18 | 1436.2 | –
334.91 K | 991.004 | 1435.5 | –
335.16 K | 990.827 | 1434.7 | –
335.41 K | 990.651 | 1434 | –
335.66 K | 990.472 | 1433.2 | –
335.91 K | 990.295 | 1432.4 | –
336.16 K | 990.117 | 1431.7 | –
336.41 K | 989.938 | 1430.9 | –
336.66 K | 989.761 | 1430.1 | –
336.9 K | 989.584 | 1429.3 | –
337.16 K | 989.407 | 1428.6 | –
337.4 K | 989.229 | 1427.8 | –
337.66 K | 989.051 | 1427 | –
337.9 K | 988.872 | 1426.3 | –
338.15 K | 988.703 | 1425.6 | –
